For 18 molecules, IC50 results are on record in US10065948B2, “Histone deacetylase inhibitors and compositions and methods of use thereof” (CHDI Foundation, Inc., priority 2014, dated 2018).

pIC50: −log10 of the molar value.

Assay [1] has as its target Histone Deacetylase 4 (HDAC4) catalytic domain (Homo sapiens (Human), UniProt P56524). Briefly: Biochemical HDAC inhibition assay, fluorogenic substrate Boc-Lys(Tfa)-AMC. Here is the method: The potency of compounds is quantified by measuring the Histone Deacetylase 4 (HDAC4) catalytic domain enzymatic activity using the fluorogenic substrate, Boc-Lys(Tfa)-AMC. The substrate is deacetylated to Boc-Lys-AMC by HDAC4. Cleavage by trypsin results in the release of the fluorophore AMC from the deacetylated substrate. The fluorescence of the sample is directly related to the histone deacetylase activity in the sample.
Stocks of 60 μL aliquots of the 10 mM compound in DMSO are prepared and stored at −20° C. From one stock aliquot of each compound to be tested and the reference compound, a 16-point serial dilution is prepared according to Table 1 using a 125 μL 16-channel Matrix multi-channel pipette (Matrix Technologies Ltd).
2 μL (200×) of each diluted solution and each control (full activity: 100% DMSO alone or full inhibition 1 mM) is stamped into V-bottomed polypropylene 384-well compound plates using either the Bravo (384-well head from Agilent) or 12.5 μL 16-channel Matrix multi-channel pipette (Matrix Technologies Ltd). Each well with the 200× compound solution is diluted 1:20 by the addition of 38 μL assay buffer+DMSO (10.5% DMSO, 45 mM Tris-HCl, 123 mM NaCl, 2.4 mM KCl, and 0.9 mM MgCl2 at pH 8.0 and equilibrated to room temperature).
The HDAC4 catalytic domain enzyme is human catalytic domain HDAC4 protein (amino acids 648-1032) with a C-terminal 6× histidine tag, produced by BioFocus. A working solution of enzyme is prepared from a 500 μg/mL stock aliquot of HDAC4 catalytic domain (thawed on ice) diluted to 0.2 μg/mL with assay buffer (50 mM Tris-HCl, 137 mM NaCl, 2.7 mM KCl, and 1 mM MgCl2 at pH 8 and equilibrated to room temperature) just prior to the addition of the enzyme to the assay.
5× (50 μM) substrate is prepared just prior to the addition to the assay. A 1 mM substrate stock is made by diluting a 100 mM Boc-Lys(Tfa)-AMC in DMSO solution 1:100 by adding it drop-wise to assay buffer (equilibrated to room temperature) while vortexing at slow speed to prevent precipitation. The 5× substrate is prepared by diluting the 1 mM substrate solution 1:20 by adding it drop-wise to assay buffer (equilibrated to room temperature) while vortexing at slow speed to prevent precipitation.
3× (30 μM) Developer/Stop Solution is prepared just prior to addition to the plate by diluting a stock solution of 10 mM reference compound 1:333 in 25 mg/mL trypsin (PAA Laboratories Ltd.) equilibrated to room temperature.
5 μL of each solution of 1:20 diluted compound from above is transferred to a clear bottomed, black, 384-well assay plate using the Bravo or the Janus (384-well MDT head from Perkin Elmer). Using a 16-channel Matrix multi-channel pipette, 35 μL of the working solution of HDAC4 catalytic domain enzyme (0.2 μg/mL in assay buffer) is transferred to the assay plate. […] The assay plate is then shaken for two minutes on an orbital shaker at 900 rpm (rotations per minute). Next the plate is incubated for 15 minutes at 37° C. The reaction is stopped by adding 25 μL of 3× (30 μM) developer/stop solution to the assay plates using either the Bravo, Janus or a 16-channel Matrix multi-channel pipette. Assay plates are then shaken for 5 minutes on an orbital shaker at 1200 rpm. Next, the assay plates are incubated at 37° C. for 1 hour in a tissue culture incubator. Finally, the fluorescence is measured (Excitation: 355 nm, Emission: 460 nm) using PerkinElmer EnVision in top read mode.

Assay [2] deals with cellular histone deacetylase enzymatic activity in Jurkat E6-1 cells. Put plainly: Inhibition of cellular HDAC activity, Boc-Lys(Tfa)-AMC substrate (Cell Lys-TFA). In kind it is cell-based. The essentials: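 Jurkat E6-1 cells (75,000/well) were treated with a 16-point compound dilution for 2 h at 37 °C, then exposed to Boc-Lys(Tfa)-AMC for 3 h. Lysis buffer containing trypsin was added overnight (15-16 h), and AMC fluorescence was read at Ex 355/Em 460 nm.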

Assay [3] has as its system cellular histone deacetylase activity (Lys-Ac). Briefly: Inhibition of cellular HDAC activity (Cell Lys-Ac). The note with it: Lys-Ac substrate. Type of assay: cell-based.
The mark [4] stands for this setting: Homo sapiens, Jurkat E6.1, Lys-TFA substrate.

Histone Deacetylase 4 (HDAC4) catalytic domain, sequence (P56524 648-1032): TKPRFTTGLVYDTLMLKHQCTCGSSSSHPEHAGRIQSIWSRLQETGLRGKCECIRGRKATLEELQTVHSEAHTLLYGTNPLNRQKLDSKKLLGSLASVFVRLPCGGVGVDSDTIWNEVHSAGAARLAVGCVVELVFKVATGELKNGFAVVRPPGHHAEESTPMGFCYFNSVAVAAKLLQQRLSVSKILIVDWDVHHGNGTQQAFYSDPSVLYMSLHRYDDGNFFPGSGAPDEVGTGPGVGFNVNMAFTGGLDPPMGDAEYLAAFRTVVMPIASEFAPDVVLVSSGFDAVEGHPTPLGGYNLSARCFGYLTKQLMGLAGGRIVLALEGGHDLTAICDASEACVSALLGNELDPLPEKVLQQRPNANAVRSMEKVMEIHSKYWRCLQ

Broadly, the pIC50 is the negative decadic logarithm of the IC50, by convention in mol/L. The low end stands for a high IC50, the high end for a low IC50. As for `Cc1c(F)cccc1[C@]1(C(=O)NO)CCc2c1cnn2Cc1ccccc1` [Example 93, (R)-1-benzyl-4-(3-fluoro-2-methylphenyl)-N-hydroxy-1,4,5,6-tetrahydrocyclopenta[c]pyrazole-4-carboxamide], the pIC50 in assay [1] was 7.57; in assay [2] (setting [4]) it was 6.77; in assay [3] it was less than 4.30.
Consider `Cc1c(F)cccc1C1(C(=O)NO)Cc2nc(-c3cnn(C)c3C)sc2C1` (single isomer, unassigned) [Example 76, E1-(abs)-2-(1,5-Dimethyl-1H-pyrazol-4-yl)-5-(3-fluoro-2-methylphenyl)-N-hydroxy-5,6-dihydro-4H-cyclopenta[d]thiazole-5-carboxamide], for which the pIC50 in assay [1] was 7.17; in assay [2] (Lys-TFA substrate) it was 7.44; in assay [3], less than 4.30.
Turning to `Cc1c(F)cccc1[C@@]1(C(=O)NO)Cc2nc(-c3ccnn3C)sc2C1` [Example 69, (R)-5-(3-Fluoro-2-methylphenyl)-N-hydroxy-2-(1-methyl-1H-pyrazol-5-yl)-5,6-dihydro-4H-cyclopenta[d]thiazole-5-carboxamide], the negative logarithm of the IC50 (pIC50) in assay [1] was 7.36; in assay [2] (setting [4]), 7.46; in assay [3], less than 4.30.
Turning to `Cc1c(F)cccc1C1(C(=O)NO)CCc2cnc(C3CC3)nc2CC1` (stereo not drawn) [Example 83, 2-Cyclopropyl-7-(3-fluoro-2-methylphenyl)-N-hydroxy-6,7,8,9-tetrahydro-5H-cyclohepta[d]pyrimidine-7-carboxamide], the negative-log IC50 (pIC50) in assay [1] is 5.89; in assay [2] (setting [4]), 6.31; in assay [3], less than 4.30.
Consider `Cc1c(F)cccc1C1(C(=O)NO)CCc2nn(Cc3ccc(F)cc3)cc2C1` (stereo not drawn) [Example 36, 5-(3-Fluoro-2-methylphenyl)-1-(4-fluorobenzyl)-N-hydroxy-4,5,6,7-tetrahydro-1H-indazole-5-carboxamide and 5-(3-fluoro-2-methylphenyl)-2-(4-fluorobenzyl)-N-hydroxy-4,5,6,7-tetrahydro-2H-indazole-5-carboxamide], for which the negative logarithm of the IC50 (pIC50) in assay [1] is 6.22; in assay [2] (Lys-TFA substrate) it was 6.43; in assay [3], less than 4.30.
On the same counts, the results for `Cc1cc(F)ccc1-c1nc2c(s1)CC(C(=O)NO)(c1cccc(F)c1C)C2` (single isomer, unassigned) [Example 74, E1-(abs)-5-(3-Fluoro-2-methylphenyl)-2-(4-fluoro-2-methylphenyl)-N-hydroxy-5,6-dihydro-4H-cyclopenta[d]thiazole-5-carboxamide] are 6.11, 6.27 and less than 4.30.
On to `Cc1c(F)cccc1C1(C(=O)NO)Cc2nc(-c3cnn(C)c3C)sc2C1` (single isomer, unassigned) [Example 77, E2-(abs)-2-(1,5-dimethyl-1H-pyrazol-4-yl)-5-(3-fluoro-2-methylphenyl)-N-hydroxy-5,6-dihydro-4H-cyclopenta[d]thiazole-5-carboxamide], for which the values for the pIC50 in assay [1], in assay [2] (Lys-TFA substrate) and in assay [3] were 6.70, 6.89 and less than 4.30, respectively.
As to `Cc1cccc(-n2ncc3c2C[C@](C(=O)NO)(c2cccc(F)c2C)C3)c1` [Example 24, (S)-5-(3-Fluoro-2-methylphenyl)-N-hydroxy-1-(m-tolyl)-1,4,5,6-tetrahydrocyclopenta[c]pyrazole-5-carboxamide], the figures for the pIC50 in assay [1], in assay [2] (setting [4]) and in assay [3] were 7.55, 7.19 and less than 4.30, respectively.
Take `Cc1c(F)cccc1C1(C(=O)NO)CCc2nc(-c3cncnc3)sc2C1` (stereo not drawn) [Example 43, 6-(3-Fluoro-2-methylphenyl)-N-hydroxy-2-(pyrimidin-5-yl)-4,5,6,7-tetrahydrobenzo[d]thiazole-6-carboxamide]: the figures for the pIC50 in assay [1], in assay [2] (setting [4]) and in assay [3] were 5.72, 6.18 and less than 4.30, respectively.
In the case of `Cc1c(F)cccc1C1(C(=O)NO)CCc2nc(NS(=O)(=O)c3ccccc3)sc2C1` (stereo not drawn) [Example 41, 6-(3-Fluoro-2-methylphenyl)-N-hydroxy-2-(phenylsulfonamido)-4,5,6,7-tetrahydrobenzo[d]thiazole-6-carboxamide], the pIC50 in assay [1] was 6.72; in assay [2] (setting [4]), 5.80; in assay [3], less than 4.30.
On the same counts, the results for `Cc1c(F)cccc1[C@]1(C(=O)NO)Cc2cn(-c3ncccc3F)nc2C1` [Example 29, (S)-5-(3-Fluoro-2-methylphenyl)-2-(3-fluoropyridin-2-yl)-N-hydroxy-2,4,5,6-tetrahydrocyclopenta[c]pyrazole-5-carboxamide] are 6.98, 7.16 and less than 4.30.
On the same counts, the results for `Cc1c(F)cccc1[C@]1(C(=O)NO)Cc2cnn(-c3cccc(Cl)c3F)c2C1` [Example 10, (S)-1-(3-Chloro-2-fluorophenyl)-5-(3-fluoro-2-methylphenyl)-N-hydroxy-1,4,5,6-tetrahydrocyclopenta[c]pyrazole-5-carboxamide] are 7.77, 7.77 and less than 4.30.
Taken in the same sequence, the figures for `Cc1c(F)cccc1C1(C(=O)NO)Cc2ccccc2C1` [Example 82, 2-(3-Fluoro-2-methylphenyl)-N-hydroxy-2,3-dihydro-1H-indene-2-carboxamide] were 6.96, 5.74 and less than 4.30.
On to `Cc1cc(C)nc(-n2cc3c(n2)C[C@](C(=O)NO)(c2cccc(F)c2C)C3)n1` [Example 91, (S)-2-(4,6-Dimethylpyrimidin-2-yl)-5-(3-fluoro-2-methylphenyl)-N-hydroxy-2,4,5,6-tetrahydrocyclopenta[c]pyrazole-5-carboxamide], for which the negative-log IC50 (pIC50) in assay [1] was 6.55; in assay [2] (setting [4]), 6.34; in assay [3], less than 4.30.
For `Cc1c(F)cccc1[C@]1(C(=O)NO)CCc2nc(-c3ccccc3Cl)ncc21` [Example 49, (R)-2-(2-chlorophenyl)-5-(3-fluoro-2-methylphenyl)-N-hydroxy-6,7-dihydro-5H-cyclopenta[d]pyrimidine-5-carboxamide], the pIC50 in assay [1] is 6.99; in assay [2] (setting [4]), 6.60; in assay [3] it was less than 4.30.
Turning to `Cc1c(F)cccc1C1(C(=O)NO)CCc2nc(C3CC3)[nH]c(=O)c2C1` (stereo not drawn) [Example 40, 2-Cyclopropyl-6-(3-fluoro-2-methylphenyl)-N-hydroxy-4-oxo-3,4,5,6,7,8-hexahydroquinazoline-6-carboxamide], the negative logarithm of the IC50 (pIC50) in assay [1] is 5.80; in assay [2] (setting [4]) it was 6.24; in assay [3], less than 4.30.
Turning to `Cc1c(F)cccc1[C@]1(C(=O)NO)Cc2nn(C)c(-c3ccc(F)cc3)c2C1` [Example 79, (R)-5-(3-Fluoro-2-methylphenyl)-3-(4-fluorophenyl)-N-hydroxy-2-methyl-2,4,5,6-tetrahydrocyclopenta[c]pyrazole-5-carboxamide], the pIC50 in assay [1] was 7.28; in assay [2] (setting [4]), 7.59; in assay [3], 4.44.
Consider `Cc1c(F)cccc1C1(C(=O)NO)Cc2nc(Cc3cccc(C(F)(F)F)c3)sc2C1` (stereo not drawn) [Example 63, 5-(3-Fluoro-2-methylphenyl)-N-hydroxy-2-(3-(trifluoromethyl)benzyl)-5,6-dihydro-4H-cyclopenta[d]thiazole-5-carboxamide], for which the pIC50 in assay [1] was 6.31; in assay [2] (setting [4]) it was 7.42; in assay [3], less than 4.30.
